Data reported in patent US20050143366A1, “Compounds for diagnosis, treatment and prevention of bone injury and metabolic disorders” (priority 2003, published 2005).

How the values were obtained:
[1] = tested on: bone loss associated with OVX; assay: Whole femoral density in ovariectomized rats, ED50 for preventing bone loss; assay type: in vivo, Sprague-Dawley female rats; settings: dosing 3 times a week for about 6 weeks, dose preventing about 50% of the bone loss, by interpolation; for ED50: Rattus norvegicus, 1008 h, read-out: ED50 (nmol/kg) for preservation of Femoral Mass
Method: In vivo experiments—Bilaterally ovariectomized and sham operated Sprague-Dawley female rats (150-170 g) from Harlan Laboratories (Indianapolis, Ind.) are housed on about a 12 hour dark/light cycle at 22° C. with ad libitum access to tap water and food (Purina Laboratory Rodent Diet 5001: 0.95% calcium, 0.67% total phosphorous, and 0.40% non-phytate phosphorous). The rats are randomly assigned into groups of about 6 to 10 animals. Compound administration begins about 4 days after surgery. […] All compounds are dissolved in 5% DMSO in corn oil. After about 6 weeks of dosing, animals are euthanized by carbon dioxide asphyxiation. Blood is collected by cardiac puncture, and uteri and both left and right femurs are removed. Fresh weights of uteri are obtained. All animal procedures and care are approved by the internal animal care and use committee to ensure compliance with NIH guidelines. Determination of whole femoral density.—Following removal, femurs are rubbed clean of soft tissue using gauze, and femur fresh weights are measured. Femurs are then submerged in distilled water under a vacuum for about 1 hour to completely hydrate the femurs. Densities are determined by Archimedes' Principle using the following formula: density=[mass of hydrated femur/(mass of hydrated femur-mass of hydrated femur submerged in water)]*density of water at ambient temperature. The dose that is effective in preventing about 50% of the bone loss associated with OVX (ED50) is determined by interpolation.

[2] = Binding to microcrystalline hydroxyapatite from dilute aqueous solution; settings: for % Adsorbed: 10^-5 M in 99:1 H2O:DMSO, 0.5% (w/v) slurried HA in Tris, mixed about 4 minutes, UV of supernatant; for Binding Index: Tetracycline positive control = 100
From the text: The ability of the compounds of the present invention to act as bone targeted pharmaceuticals is estimated initially by determination of the ability of the compounds to be bound to microcrystalline hydroxyapatite [Ca10(PO4)6.OH2] (HA) from a dilute aqueous solution. Solutions of test compounds are constructed in about 99: 1, v/v, H2O:dimethylsulfoxide (DMSO) at 10^−5M. These solutions are taken for determination of electronic photometric absorption spectra scanning from λ=500-190 nm. Absorption maxima (λmax) and extinction coefficients (ε) are determined using the Beer-Lambert law. […] These solutions and slurries are mixed for about 4 minutes, then centrifuged for about 3 minutes at 10,000×g. Supernatants are taken for UV absorption spectrometry at previously determined λmax. Concentrations of test compound are determined and the extent of binding is calculated. Tetracycline is included as a positive control compound.

[3] = tested on: bone strength of femora from OVX rats; assay: Blunt indentation force to failure test of the distal femoral metaphysis; assay type: in vivo; settings: FIG. 1
Method: FIG. 1 is a bar graph showing the distal femur strength of animals including those treated with an exemplary compound of the present invention.
Bone density is not necessarily the equivalent to bone strength, so an additional test (blunt indentation force of the distal metaphysis) is performed as well. With reference to FIG. 1, as a measure of bone mechanical competence, a blunt indentation force to failure test is performed on femora from about 6-week-old OVX rats. Sham operated animals are simultaneously tested as a control.

COc1ccc(NC(=O)CCC(=O)OC2CCC3C4CCc5cc(O)ccc5C4CCC23C)c(O)c1C(N)=O (centres unmarked) [BTE2-A2]
ED50 [1]: 19 nmol/kg | % Adsorbed [2]: 91.7% | Binding Index [2]: 178

NC(=O)c1c(O)ccc(N)c1O [3-amino-2,6-dihydroxybenzamide, reference compound]
% Adsorbed [2]: 25.4% | Binding Index [2]: 49

CC12CCC3c4ccc(O)cc4CCC3C1CCC2OC(=O)CCC(=O)Nc1ccc(O)c(C(N)=O)c1O (centres unmarked) [BTE2-A1]
ED50 [1]: 8 nmol/kg | % Adsorbed [2]: 54% | Binding Index [2]: 105

C[C@]12CC[C@@H]3c4ccc(O)cc4CC[C@H]3[C@@H]1CC[C@@H]2O [17-β-estradiol, reference compound]
ED50 [1]: 10 nmol/kg | bone strength (blunt indentation force to failure, distal femur) [3]: completely protect against osteopenia | % Adsorbed [2]: −4.0% | Binding Index [2]: −8

Raloxifene [reference compound]
ED50 (nmol/kg) for preservation of Femoral Mass [1]: 210 nmol/kg | effect on bone strength (blunt indentation force to failure) ([3]; at a normal dose): ~30%

COc1ccc(NC(=O)CCCCC(=O)OC2CCC3C4CCc5cc(O)ccc5C4CCC23C)c(O)c1C(N)=O (centres unmarked) [BTE2-B2]
ED50 [1]: 9 nmol/kg | % Adsorbed [2]: 99.1% | Binding Index [2]: 192
